Laboratory results taken from PMC3534865 (Bioorganic & medicinal chemistry letters, 2012).
Entries after “also recorded” stand apart in the source; their conditions may differ.

How the values were obtained:
human M1 (hM1) [1] = target: T1, human M1 (hM1) (Homo sapiens, UniProt P11229); assay: hM1 PAM functional; type: cell-based; conditions: for hM1 PAM activity: tested up to 30 μM; for pEC50: Table 2, hM1, mean ± SEM; for efficacy (% AChmax) compared with ML137: at the highest concentration tested of 30 μM
T1 sequence (P11229 1-460): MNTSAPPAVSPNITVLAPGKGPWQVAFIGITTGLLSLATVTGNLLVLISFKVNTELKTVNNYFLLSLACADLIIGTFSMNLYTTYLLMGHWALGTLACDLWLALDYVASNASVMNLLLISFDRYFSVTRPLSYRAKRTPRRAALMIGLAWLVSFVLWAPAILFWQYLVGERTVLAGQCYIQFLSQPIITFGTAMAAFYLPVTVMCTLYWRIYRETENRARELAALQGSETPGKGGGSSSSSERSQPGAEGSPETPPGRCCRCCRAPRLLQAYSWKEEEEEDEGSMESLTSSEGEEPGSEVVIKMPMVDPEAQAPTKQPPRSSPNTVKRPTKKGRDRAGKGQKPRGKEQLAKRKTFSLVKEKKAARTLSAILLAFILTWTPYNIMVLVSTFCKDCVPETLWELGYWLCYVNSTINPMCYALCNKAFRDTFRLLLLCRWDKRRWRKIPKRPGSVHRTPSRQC

[2] = Chemical stability observation; type: physicochemical; conditions: presumed air oxidation or self-condensation
human M1 (hM1) [3] = target: T1, human M1 (hM1); conditions: cited from earlier work
[4] = system: human muscarinic receptor subtypes; type: cell-based; conditions: hM1 over the other muscarinic receptor subtypes; Figure 4
hM1 = target: T2, hM1 (Homo sapiens, UniProt P11229); assay: ACh fold-shift experiment; type: cell-based; conditions: ML137 to 14
T2 sequence (P11229 1-460): T1 sequence (P11229 1-460)

SMILES	hM1 PAM activity (human M1 (hM1) [1])	other results
CC(=O)N(Cc1ccc(-c2cnn(C)c2)cc1F)c1ccccc1 [Compound 17]	inactive	–
Cn1cc(-c2ccc(CN3C(=O)c4cccc5cccc3c45)c(F)c2)cn1 [Compound 18]	detrimental to activity	–
Cn1cc(-c2ccc(CN3C(=O)C(C)(O)c4ccccc43)c(F)c2)cn1 (stereo not shown) [Compound 23e]	–	chemical stability [2]: stable
Cn1cc(-c2ccc(CN3C(=O)C(N)c4ccccc43)c(F)c2)cn1 (stereo not shown) [Compound 23b]	–	chemical stability [2]: undesirable level of chemical instability; increase in hM1 potency over 14 (human M1 (hM1) [1]; ratio of EC50 vs 14): 2 fold
Cn1cc(-c2ccc(CN3CCc4ccccc43)c(F)c2)cn1 [Compound 16]	not tolerated	–
O=C1N(Cc2ccc(-c3cn[nH]c3)cc2F)c2ccccc2C1(O)C(F)(F)F (stereo not shown) [Compound 23m]	complete loss of activity	–
Cn1cc(-c2ccc(CN3C(=O)COc4ccccc43)c(F)c2)cn1 [Compound 24e]	–	pEC50 (human M1 (hM1) [1]): 5.29 ± 0.09
Cn1cc(-c2ccc(CN3CCSc4ccccc43)c(F)c2)cn1 [Compound 24k]	no activity at all	–
CN(C)C1(C)C(=O)N(Cc2ccc(-c3cnn(C)c3)cc2)c2ccccc21 (stereo not shown) [Compound 23d]	weakly active	–
CCCn1cc(-c2ccc(CN3C(=O)C(O)(C(F)(F)F)c4ccccc43)c(F)c2)cn1 (stereo not shown) [Compound 23k]	complete loss of activity	–
Cn1cc(-c2ccc(CN3C(=O)C(=O)c4ccccc43)c(F)c2)cn1 [ML137]	–	%AChmax previously reported (human M1 (hM1) [3]): 65%
Cn1cc(-c2ccc(CN3c4ccccc4CS3(=O)=O)c(F)c2)cn1 [Compound 13]	–	efficacy (% AChmax) compared with ML137 (human M1 (hM1) [1]): comparable efficacy
Cn1cc(-c2ccc(CN3C(=O)C(C)(N)c4ccccc43)c(F)c2)cn1 (stereo not shown) [Compound 23c]	weakly active	–
Cn1cc(-c2ccc(Cn3ccccc3=O)c(F)c2)cn1 [Compound 24d]	loss of all PAM activity	–
Cn1cc(-c2ccc(CN3C(=O)CSc4ccccc43)c(F)c2)cn1 [Compound 24h]	–	pEC50 (human M1 (hM1) [1]): 5.49 ± 0.12
Cn1cc(-c2ccc(Cn3c(=O)[nH]c4ccccc43)c(F)c2)cn1 [Compound 15]	not tolerated	–
Cn1cc(-c2ccc(CN3C(=O)Cc4ccccc43)c(F)c2)cn1 [Compound 14]	–	muscarinic receptor subtype selectivity [4]: little-to-no erosion of muscarinic subtype selectivity; also recorded: very selective for the hM1 receptor; improvement in ACh fold-shift relative to ML137 (hM1): 10 fold; decrease in hM1 PAM EC50 (potency) relative to ML137 (human M1 (hM1) [1]; ML137 to 14): 4 fold; efficacy (% AChmax) compared with ML137 (human M1 (hM1) [1]): comparable efficacy
CC(C)n1cc(-c2ccc(CN3C(=O)C(O)(C(F)(F)F)c4ccccc43)c(F)c2)cn1 (stereo not shown) [Compound 23l]	complete loss of activity	–
